Data taken from patent US20150274719A1, “AMINO-SUBSTITUTED IMIDAZO[1,2-A]PYRIDINECARBOXAMIDES AND THEIR USE” (BAYER PHARMA AKTIENGESELLSCHAFT, priority 2012, published 2015).
Structures can show the parent of a compound that is named as a salt.

These molecules were tested against T1, recombinant guanylate cyclase reporter cell line (Rattus norvegicus, UniProt P19686+P20595) (assay: Action on recombinant guanylate cyclase reporter cell line). Settings: in some cases mean values from individual determinations.
T1 construct: expressed in transfected cells; host or cells: recombinant reporter cell line
T1 sequence (P19686 1-690): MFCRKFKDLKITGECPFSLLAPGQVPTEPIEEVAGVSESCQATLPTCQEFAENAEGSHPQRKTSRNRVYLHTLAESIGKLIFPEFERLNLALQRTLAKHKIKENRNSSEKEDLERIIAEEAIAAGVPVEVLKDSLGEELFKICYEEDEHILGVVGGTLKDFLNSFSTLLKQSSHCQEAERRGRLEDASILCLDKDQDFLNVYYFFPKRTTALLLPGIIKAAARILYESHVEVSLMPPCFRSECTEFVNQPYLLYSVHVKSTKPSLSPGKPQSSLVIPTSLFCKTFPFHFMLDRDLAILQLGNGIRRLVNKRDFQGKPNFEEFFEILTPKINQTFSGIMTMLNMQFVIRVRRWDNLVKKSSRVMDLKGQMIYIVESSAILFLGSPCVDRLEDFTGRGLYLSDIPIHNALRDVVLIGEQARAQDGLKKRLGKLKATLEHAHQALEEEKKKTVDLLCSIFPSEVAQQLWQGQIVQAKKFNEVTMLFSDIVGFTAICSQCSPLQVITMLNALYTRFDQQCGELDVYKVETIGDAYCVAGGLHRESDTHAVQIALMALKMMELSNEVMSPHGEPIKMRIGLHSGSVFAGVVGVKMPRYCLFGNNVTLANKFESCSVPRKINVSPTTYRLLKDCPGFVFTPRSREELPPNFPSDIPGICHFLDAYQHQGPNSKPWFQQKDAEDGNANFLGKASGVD
T1 sequence (P20595 1-619): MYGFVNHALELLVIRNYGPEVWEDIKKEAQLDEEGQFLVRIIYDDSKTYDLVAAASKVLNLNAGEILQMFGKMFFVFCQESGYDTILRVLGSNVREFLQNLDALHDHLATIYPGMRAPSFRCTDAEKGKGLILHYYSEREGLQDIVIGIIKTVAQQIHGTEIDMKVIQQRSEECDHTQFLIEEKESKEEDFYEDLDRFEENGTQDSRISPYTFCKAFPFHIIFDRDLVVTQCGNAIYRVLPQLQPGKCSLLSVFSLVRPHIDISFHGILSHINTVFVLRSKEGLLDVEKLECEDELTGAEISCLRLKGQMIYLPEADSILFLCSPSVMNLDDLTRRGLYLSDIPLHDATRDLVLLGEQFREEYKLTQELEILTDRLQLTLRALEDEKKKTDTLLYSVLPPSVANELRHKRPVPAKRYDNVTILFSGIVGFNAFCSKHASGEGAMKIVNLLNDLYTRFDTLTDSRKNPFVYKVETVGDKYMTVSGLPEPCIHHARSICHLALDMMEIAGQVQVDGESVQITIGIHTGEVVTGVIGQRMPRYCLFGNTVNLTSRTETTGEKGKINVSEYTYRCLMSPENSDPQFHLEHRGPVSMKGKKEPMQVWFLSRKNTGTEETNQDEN
Format: cell-based
Summary of the method: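 Each compound is applied to a cell line engineered with a reporter for recombinant guanylate cyclase. The minimal effective concentration is then noted, in part as a mean across separate determinations.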

| Compound | MEC (minimal effective concentration) |
| --- | --- |
| Cc1cc(OCc2c(F)cccc2F)c2nc(C)c(C(=O)NCC(C)(N)CCOCc3ccccc3)n2c1 (racemic) [Example 262, rac-N-[2-Amino-4-(benzyloxy)-2-methylbutyl]-8-[(2,6-difluorobenzyl)oxy]-2,6-dimethylimidazo-[1,2-a]pyridine-3-carboxamide] | 0.10 µM |
| Cc1cc(OCc2c(F)cccc2F)c2nc(C)c(C(=O)NC3CCC3(C)N)n2c1 (single isomer, unassigned; enantiomer b) [Example 333, ent-N-[2-amino-2-methylcyclobutyl]-8-[(2,6-difluorobenzyl)oxy]-2,6-dimethylimidazo[1,2-a]pyridine-3-carboxamide (Enantiomer B)] | 1.00 µM |
| Cc1cc(OCc2c(F)cccc2F)c2nc(C)c(C(=O)NCC(N)C(C)C)n2c1 (single isomer, unassigned) [Example 224, ent-N-(2-Amino-3-methylbutyl)-8-[(2,6-difluorobenzyl)oxy]-2,6-dimethylimidazo[1,2-a]pyridine-3-carboxamide] | 0.30 µM |
| Cc1nc2c(OCc3c(F)cccc3F)cccn2c1C(=O)NCC1NCCc2ccccc21 (racemic) [Example 80, rac-8-[(2,6-difluorobenzyl)oxy]-2-methyl-N-(1,2,3,4-tetrahydroisoquinolin-1-ylmethyl)-imidazo[1,2-a]pyridine-3-carboxamide] | 1.00 µM |
| Cc1nc2c(OCc3c(F)cccc3F)cc(Cl)cn2c1C(=O)NC1CNCc2ccccc21 (single isomer, unassigned; ent-6) [Example 108, ent-6-chloro-8-[(2,6-difluorobenzyl)oxy]-2-methyl-N-(1,2,3,4-tetrahydroisoquinolin-4-yl)imidazo[1,2-a]pyridine-3-carboxamide] | 1.00 µM |
| Cc1cc(OCc2c(F)cccc2F)c2nc(C)c(C(=O)NC(C)(C)CN)n2c1 [Example 26, N-(1-amino-2-methylpropan-2-yl)-8-[(2,6-difluorobenzyl)oxy]-2,6-dimethylimidazo[1,2-a]-pyridine-3-carboxamide] | 0.30 µM |
| Cc1cc(OCc2c(F)cccc2F)c2nc(C)c(C(=O)NC(CN)c3ccc4ncccc4c3)n2c1 (racemic) [Example 395, rac-N-[2-amino-1-(quinolin-6-yl)ethyl]-8-[(2,6-difluorobenzyl)oxy]-2,6-dimethylimidazo[1,2-a]pyridine-3-carboxamide] | 1.00 µM |
| Cc1nc2c(OCc3c(F)cccc3F)cccn2c1C(=O)NCC(C)N1CCOCC1 (single isomer, unassigned; ent-8) [Example 181, ent-8-[(2,6-Difluorobenzyl)oxy]-2-methyl-N-[2-(morpholin-4-yl)propyl]imidazo[1,2-a]pyridine-3-carboxamide] | 1.00 µM |
| Cc1nc2c(OCc3c(F)cccc3F)cccn2c1C(=O)NCC(C)CN (single isomer, unassigned) [Example 96, ent-N-(3-Amino-2-methylpropyl)-8-[(2,6-difluorobenzyl)oxy]-2-methylimidazo[1,2-a]pyridine-3-carboxamide dihydrochloride] | 1.00 µM |
| Cc1cc(OCc2c(F)cccc2F)c2nc(C)c(C(=O)NCC(C)(C)NCCO)n2c1 [Example 349, 8-[(2,6-Difluorobenzyl)oxy]-N-{2-[(2-hydroxyethyl)amino]-2-methylpropyl}-2,6-dimethylimidazo[1,2-a]pyridine-3-carboxamide] | 1.00 µM |
| [2H]C([2H])(Oc1cccn2c(C(=O)NC(CN)c3ccc(F)c(F)c3)c(C)nc12)c1c(F)cccc1F (stereo not drawn) [Example 97, ent-N-[2-Amino-1-(3,4-difluorophenyl)ethyl]-8-{[(2,6-difluorophenyl)(^2H2)methyl]oxy}-2-methylimidazo[1,2-a]pyridine-3-carboxamide] | 0.10 µM |
| Cc1nc2c(OCc3c(F)cccc3F)cc(Cl)cn2c1C(=O)NCC1CCCCN1 (racemic) [Example 118, rac-6-chloro-8-[(2,6-difluorobenzyl)oxy]-2-methyl-N-(piperidin-2-ylmethyl)imidazo[1,2-a]-pyridine-3-carboxamide] | 1.00 µM |
| Cc1cc(OCc2c(F)cccc2F)c2nc(C)c(C(=O)NC(CN)c3ccc4c(c3)OCCO4)n2c1 (racemic) [Example 388, rac-N-[2-amino-1-(2,3-dihydro-1,4-benzodioxin-6-yl)ethyl]-8-[(2,6-difluorobenzyl)oxy]-2,6-dimethylimidazo[1,2-a]pyridine-3-carboxamide] | 0.30 µM |
| Cc1nc2c(OCc3c(F)cccc3F)cc(Cl)cn2c1C(=O)NCC(C)N (racemic) [Example 23, rac-N-(2-aminopropyl)-6-chloro-8-[(2,6-difluorobenzyl)oxy]-2-methylimidazo[1,2-a]-pyridine-3-carboxamide] | 0.30 µM |
| Cc1nc2c(OCc3c(F)cccc3F)cccn2c1C(=O)NC(C)CN (single isomer, unassigned) [Example 20, ent-N-(1-Aminopropan-2-yl)-8-[(2,6-difluorobenzyl)oxy]-2-methylimidazo[1,2-a]pyridine-3-carboxamide] | 1.00 µM |
| Cc1cc(OCc2c(F)cccc2F)c2nc(C)c(C(=O)NCC(C)(N)CC(C)C)n2c1 (single isomer, unassigned) [Example 219, ent-N-(2-Amino-2,4-dimethylpentyl)-8-[(2,6-difluorobenzyl)oxy]-2,6-dimethylimidazo[1,2-a]-pyridine-3-carboxamide] | 0.30 µM |
| Cc1nc2c(OCc3c(F)cccc3F)cccn2c1C(=O)NC(CN1CCOCC1)c1ccccc1 (racemic) [Example 134, rac-8-[(2,6-difluorobenzyl)oxy]-2-methyl-N-[2-(morpholin-4-yl)-1-phenylethyl]imidazo[1,2-a]-pyridine-3-carboxamide] | 3.00 µM |
| Cc1nc2c(OCc3c(F)cccc3F)cccn2c1C(=O)NC1CC(C)(C)N(C)C(C)(C)C1 [Example 83, 8-[(2,6-difluorobenzyl)oxy]-2-methyl-N-(1,2,2,6,6-pentamethylpiperidin-4-yl)imidazo[1,2-a]pyridine-3-carboxamide] | 0.10 µM |
| Cc1nc2c(OCc3c(F)cccc3F)cccn2c1C(=O)NC1CNc2ccccc2C1 (single isomer, unassigned; ent-8) [Example 81, ent-8-[(2,6-Difluorobenzyl)oxy]-2-methyl-N-(1,2,3,4-tetrahydroquinolin-3-yl)imidazo[1,2-a]-pyridine-3-carboxamide] | 1.00 µM |
| Cc1nc2c(OCc3c(F)cccc3F)cccn2c1C(=O)NCC(C(C)C)N(C)C (single isomer, unassigned; ent-8) [Example 188, ent-8-[(2,6-Difluorobenzyl)oxy]-N-[2-(dimethylamino)-3-methylbutyl]-2-methylimidazo[1,2-a]-pyridine-3-carboxamide] | 1.00 µM |
| Cc1nc2c(OCc3c(F)cccc3F)cccn2c1C(=O)NCCN1CCS(=O)(=O)CC1 [Example 131, 8-[(2,6-difluorobenzyl)oxy]-N-[2-(1,1-dioxidothiomorpholin-4-yl)ethyl]-2-methylimidazo[1,2-a]pyridine-3-carboxamide] | 3.00 µM |
| Cc1cc(OCc2c(F)cccc2F)c2nc(C)c(C(=O)NC(CN)c3cccc(OCCO)c3)n2c1 (racemic) [Example 393, rac-N-{2-amino-1-[3-(2-hydroxyethoxy)phenyl]ethyl}-8-[(2,6-difluorobenzyl)oxy]-2,6-dimethylimidazo[1,2-a]pyridine-3-carboxamide] | 1.00 µM |
| Cc1nc2c(OCc3c(F)cccc3F)cccn2c1C(=O)NC12CNCCC1C2 (single isomer, unassigned) [Example 185, ent-N-(3-Azabicyclo[4.1.0]hept-1-yl)-8-[(2,6-difluorobenzyl)oxy]-2-methylimidazo[1,2-a]pyridine-3-carboxamide] | 1.00 µM |
